For assay [1], the target named is T1, Mitogen-activated protein kinase 13 (Homo sapiens) (UniProt O15264).
T1 sequence (whole entry): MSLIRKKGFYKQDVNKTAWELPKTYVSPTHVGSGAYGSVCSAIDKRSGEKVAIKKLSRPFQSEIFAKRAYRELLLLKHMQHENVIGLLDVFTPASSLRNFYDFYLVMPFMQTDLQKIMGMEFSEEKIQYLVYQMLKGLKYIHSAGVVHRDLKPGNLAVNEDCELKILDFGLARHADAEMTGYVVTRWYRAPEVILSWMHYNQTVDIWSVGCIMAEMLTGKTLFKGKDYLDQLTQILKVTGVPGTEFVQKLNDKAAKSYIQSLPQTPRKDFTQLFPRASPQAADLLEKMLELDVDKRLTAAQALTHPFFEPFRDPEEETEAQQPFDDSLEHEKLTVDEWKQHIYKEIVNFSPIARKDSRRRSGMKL
In words: Selectivity interaction (KinomeScan (DiscoverX)) EUB0001619a MAPK13. As to conditions: at 1 µM.

For assay [2], the target named is Focal adhesion kinase 1 (Homo sapiens, UniProt Q05397). In words: Selectivity interaction (ActivX KiNativ screen (kinase selectivity in THP-1 cell lysates)) EUB0000639a PTK2. As to conditions: lysate. The assay is classed as subcellular.
Assay [3] addresses Cyclin-dependent kinase 7 (Homo sapiens, UniProt P50613). In words: Selectivity interaction (ActivX KiNativ screen (kinase selectivity in THP-1 cell lysates)) EUB0000639a CDK7. As to conditions: lysate, at 0.2 µM. The assay is classed as subcellular.
Assay [4] deals with T2, Receptor-type tyrosine-protein kinase FLT3 (Homo sapiens, UniProt P36888).
T2 sequence (P36888 whole entry): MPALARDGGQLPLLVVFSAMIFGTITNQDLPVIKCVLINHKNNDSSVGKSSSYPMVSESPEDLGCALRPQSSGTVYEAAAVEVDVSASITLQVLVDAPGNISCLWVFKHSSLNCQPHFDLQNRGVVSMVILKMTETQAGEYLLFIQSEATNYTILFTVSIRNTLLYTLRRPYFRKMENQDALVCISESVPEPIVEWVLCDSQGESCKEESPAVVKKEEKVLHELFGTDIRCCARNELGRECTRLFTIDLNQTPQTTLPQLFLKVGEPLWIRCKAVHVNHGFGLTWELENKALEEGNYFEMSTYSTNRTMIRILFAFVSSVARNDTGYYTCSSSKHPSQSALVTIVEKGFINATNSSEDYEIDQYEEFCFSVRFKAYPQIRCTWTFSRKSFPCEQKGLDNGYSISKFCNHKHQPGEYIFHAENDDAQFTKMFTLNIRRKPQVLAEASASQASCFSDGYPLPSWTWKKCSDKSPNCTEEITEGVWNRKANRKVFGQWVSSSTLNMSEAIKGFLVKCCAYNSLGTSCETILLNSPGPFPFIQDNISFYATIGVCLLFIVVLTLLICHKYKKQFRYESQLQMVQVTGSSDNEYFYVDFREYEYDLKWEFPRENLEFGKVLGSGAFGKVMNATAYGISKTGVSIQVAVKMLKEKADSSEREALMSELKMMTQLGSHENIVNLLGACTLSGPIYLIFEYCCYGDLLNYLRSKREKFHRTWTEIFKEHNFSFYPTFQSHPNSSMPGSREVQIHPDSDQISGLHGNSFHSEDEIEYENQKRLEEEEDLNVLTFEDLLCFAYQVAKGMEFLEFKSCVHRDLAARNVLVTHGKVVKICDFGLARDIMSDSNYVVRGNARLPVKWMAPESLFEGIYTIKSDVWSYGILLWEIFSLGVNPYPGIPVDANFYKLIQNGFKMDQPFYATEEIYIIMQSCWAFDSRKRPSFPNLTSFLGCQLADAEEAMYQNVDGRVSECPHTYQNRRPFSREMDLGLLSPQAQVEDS
Briefly: Selectivity interaction (Kinase panel (Invitrogen, enzymatic assay)) EUB0000162b FLT3.

Assay [5] addresses Phosphatidylinositol 4-phosphate 3-kinase C2 domain-containing subunit beta (Homo sapiens) (UniProt O00750). In words: Selectivity interaction (ProQinase) EUB0000171b PIK3C2B.
Assay [6] deals with Epithelial discoidin domain-containing receptor 1 (Homo sapiens) (UniProt Q08345). In words: Selectivity interaction (KinomeScan (DiscoverX)) EUB0000655a DDR1. To be noted: at 10 µM.
Assay [7] deals with CDK4/Cyclin D3 (Homo sapiens) (UniProt P11802+P30281). In words: (§1) Selectivity interaction (KinomeScan (DiscoverX)) EUB0000092b CDK4. Type of assay: protein-complex assay. As to conditions: at 10 µM.
In assay [8] the target is Cyclin-dependent kinase 4/cyclin D1 (Homo sapiens) (UniProt P11802+P24385). Described as §1. The assay is classed as protein-complex assay. To be noted: at 10 µM.
Assay [9] concerns the target T3, N-lysine methyltransferase KMT5A (Homo sapiens) (UniProt Q9NQR1).
T3 sequence (whole entry): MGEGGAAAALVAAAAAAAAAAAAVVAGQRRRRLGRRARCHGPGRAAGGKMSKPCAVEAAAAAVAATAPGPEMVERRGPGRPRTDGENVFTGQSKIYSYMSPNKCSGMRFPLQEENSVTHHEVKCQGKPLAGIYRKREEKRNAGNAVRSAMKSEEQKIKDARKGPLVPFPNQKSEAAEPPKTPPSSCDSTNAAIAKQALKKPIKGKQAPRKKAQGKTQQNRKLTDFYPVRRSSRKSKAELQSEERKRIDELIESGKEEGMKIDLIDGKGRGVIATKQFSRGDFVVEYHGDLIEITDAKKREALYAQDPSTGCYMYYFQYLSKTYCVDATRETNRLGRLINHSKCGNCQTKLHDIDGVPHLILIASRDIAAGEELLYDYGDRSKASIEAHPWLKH
Briefly: Selectivity interaction (Methyltransferase screen (radiometric assays, panel of 8 PRMTs, 21 protein lysine methyltransferases, 3 DNA methyltransferases, and one RNA methyltransferase)) EUB0000272b SETD8.

The target in assay [10] is Ribosomal protein S6 kinase alpha-6 (Homo sapiens, UniProt Q9UK32). Briefly: Selectivity interaction (KinomeScan (DiscoverX)) EUB0000229b RPS6KA6. As to conditions: at 10 µM.

This is an account of results in ChEMBL document CHEMBL5465560, “Selectivity Literature for EUbOPEN Chemogenomic Library” (2024).

The structures appear in SMILES notation.

Chain of Focal adhesion kinase 1 (Q05397 2-1052 limits assumed): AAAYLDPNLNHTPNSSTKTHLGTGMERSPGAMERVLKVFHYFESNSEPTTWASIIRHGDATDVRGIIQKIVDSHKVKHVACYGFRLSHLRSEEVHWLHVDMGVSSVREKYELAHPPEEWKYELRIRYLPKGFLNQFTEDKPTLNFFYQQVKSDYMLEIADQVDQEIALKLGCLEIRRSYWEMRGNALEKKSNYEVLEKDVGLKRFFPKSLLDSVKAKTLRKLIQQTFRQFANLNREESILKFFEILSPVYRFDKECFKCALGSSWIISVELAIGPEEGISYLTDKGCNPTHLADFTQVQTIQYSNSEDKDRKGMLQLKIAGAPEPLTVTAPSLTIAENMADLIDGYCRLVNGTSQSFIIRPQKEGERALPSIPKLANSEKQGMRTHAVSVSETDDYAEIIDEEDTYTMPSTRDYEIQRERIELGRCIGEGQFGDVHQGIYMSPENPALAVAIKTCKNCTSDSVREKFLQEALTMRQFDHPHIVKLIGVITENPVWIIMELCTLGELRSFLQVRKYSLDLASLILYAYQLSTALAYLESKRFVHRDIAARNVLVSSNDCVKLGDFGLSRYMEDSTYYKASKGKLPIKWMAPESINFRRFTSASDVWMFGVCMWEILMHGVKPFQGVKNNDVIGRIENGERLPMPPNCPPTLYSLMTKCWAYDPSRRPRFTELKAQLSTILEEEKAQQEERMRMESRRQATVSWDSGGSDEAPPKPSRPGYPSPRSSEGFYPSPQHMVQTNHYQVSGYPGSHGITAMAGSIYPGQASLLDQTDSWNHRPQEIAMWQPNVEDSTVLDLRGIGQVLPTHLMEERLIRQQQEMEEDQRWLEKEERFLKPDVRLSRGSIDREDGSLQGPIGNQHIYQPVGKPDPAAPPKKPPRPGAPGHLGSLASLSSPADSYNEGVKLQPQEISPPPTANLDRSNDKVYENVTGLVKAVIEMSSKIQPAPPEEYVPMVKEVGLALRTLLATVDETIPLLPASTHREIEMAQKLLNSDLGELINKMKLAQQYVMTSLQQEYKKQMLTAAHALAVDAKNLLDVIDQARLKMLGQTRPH
Chain of Phosphatidylinositol 4-phosphate 3-kinase C2 domain-containing subunit beta (Homo sapiens) (O00750 whole entry, the tested form may be a part): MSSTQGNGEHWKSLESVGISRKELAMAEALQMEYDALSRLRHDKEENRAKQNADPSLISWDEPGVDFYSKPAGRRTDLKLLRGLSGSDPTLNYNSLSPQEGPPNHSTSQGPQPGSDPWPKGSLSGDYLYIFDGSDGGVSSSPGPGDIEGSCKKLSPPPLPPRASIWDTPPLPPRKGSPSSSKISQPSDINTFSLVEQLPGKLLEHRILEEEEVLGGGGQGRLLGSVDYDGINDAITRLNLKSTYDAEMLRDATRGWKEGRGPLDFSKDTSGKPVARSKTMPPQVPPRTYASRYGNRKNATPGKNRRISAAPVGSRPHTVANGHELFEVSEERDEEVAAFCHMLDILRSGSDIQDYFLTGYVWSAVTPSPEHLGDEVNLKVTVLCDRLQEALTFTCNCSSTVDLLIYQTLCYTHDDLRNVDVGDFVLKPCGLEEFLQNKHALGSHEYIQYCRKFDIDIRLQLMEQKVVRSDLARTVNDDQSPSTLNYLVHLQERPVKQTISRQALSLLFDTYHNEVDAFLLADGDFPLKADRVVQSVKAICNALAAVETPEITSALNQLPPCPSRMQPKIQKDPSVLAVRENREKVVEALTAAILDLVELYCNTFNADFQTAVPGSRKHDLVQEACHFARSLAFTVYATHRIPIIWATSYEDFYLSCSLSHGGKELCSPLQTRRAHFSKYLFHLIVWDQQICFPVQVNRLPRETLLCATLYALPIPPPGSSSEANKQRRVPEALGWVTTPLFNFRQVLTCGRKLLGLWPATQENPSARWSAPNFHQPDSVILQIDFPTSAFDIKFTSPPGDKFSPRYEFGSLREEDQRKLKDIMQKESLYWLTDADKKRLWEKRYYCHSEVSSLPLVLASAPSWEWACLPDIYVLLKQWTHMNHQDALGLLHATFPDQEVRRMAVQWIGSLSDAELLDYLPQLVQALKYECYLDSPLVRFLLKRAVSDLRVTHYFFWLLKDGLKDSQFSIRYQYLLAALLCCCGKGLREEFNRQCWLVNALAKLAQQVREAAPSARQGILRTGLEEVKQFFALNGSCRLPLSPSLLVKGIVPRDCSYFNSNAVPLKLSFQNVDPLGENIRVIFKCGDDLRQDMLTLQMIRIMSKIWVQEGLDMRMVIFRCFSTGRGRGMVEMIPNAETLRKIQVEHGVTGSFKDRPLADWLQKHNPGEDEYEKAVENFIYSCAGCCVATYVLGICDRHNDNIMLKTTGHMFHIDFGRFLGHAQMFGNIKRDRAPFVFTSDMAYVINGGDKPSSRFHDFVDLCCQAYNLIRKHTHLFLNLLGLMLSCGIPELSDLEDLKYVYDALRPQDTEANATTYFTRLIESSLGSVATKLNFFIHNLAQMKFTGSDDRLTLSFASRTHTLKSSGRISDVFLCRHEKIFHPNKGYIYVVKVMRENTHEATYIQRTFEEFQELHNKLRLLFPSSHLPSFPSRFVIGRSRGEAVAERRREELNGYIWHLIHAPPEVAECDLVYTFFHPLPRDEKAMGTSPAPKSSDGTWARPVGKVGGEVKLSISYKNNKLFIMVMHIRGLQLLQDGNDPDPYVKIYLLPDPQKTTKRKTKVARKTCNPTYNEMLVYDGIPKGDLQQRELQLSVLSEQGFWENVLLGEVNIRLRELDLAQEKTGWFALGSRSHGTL
Chain of Ribosomal protein S6 kinase alpha-6 (Q9UK32 whole entry): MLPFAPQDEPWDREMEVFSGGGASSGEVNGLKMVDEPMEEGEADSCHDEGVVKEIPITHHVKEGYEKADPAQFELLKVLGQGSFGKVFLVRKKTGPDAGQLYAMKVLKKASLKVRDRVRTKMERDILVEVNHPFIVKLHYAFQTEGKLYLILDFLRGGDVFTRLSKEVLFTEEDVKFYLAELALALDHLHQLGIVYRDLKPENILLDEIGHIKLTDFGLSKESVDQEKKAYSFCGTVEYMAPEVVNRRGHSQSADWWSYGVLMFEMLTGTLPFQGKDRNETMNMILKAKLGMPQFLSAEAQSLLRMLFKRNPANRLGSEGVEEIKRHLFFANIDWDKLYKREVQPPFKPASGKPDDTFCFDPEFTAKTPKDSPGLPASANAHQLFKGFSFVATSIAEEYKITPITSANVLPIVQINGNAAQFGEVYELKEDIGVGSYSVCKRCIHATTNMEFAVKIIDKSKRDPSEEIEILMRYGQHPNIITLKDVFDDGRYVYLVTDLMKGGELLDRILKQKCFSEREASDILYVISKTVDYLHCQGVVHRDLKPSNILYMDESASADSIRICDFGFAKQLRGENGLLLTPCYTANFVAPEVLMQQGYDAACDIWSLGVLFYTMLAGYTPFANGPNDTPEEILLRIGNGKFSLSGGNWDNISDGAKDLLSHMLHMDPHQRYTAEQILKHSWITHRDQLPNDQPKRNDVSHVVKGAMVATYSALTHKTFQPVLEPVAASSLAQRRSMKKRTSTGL
Chain of Epithelial discoidin domain-containing receptor 1 (Homo sapiens) (Q08345 whole entry, the tested form may be a part): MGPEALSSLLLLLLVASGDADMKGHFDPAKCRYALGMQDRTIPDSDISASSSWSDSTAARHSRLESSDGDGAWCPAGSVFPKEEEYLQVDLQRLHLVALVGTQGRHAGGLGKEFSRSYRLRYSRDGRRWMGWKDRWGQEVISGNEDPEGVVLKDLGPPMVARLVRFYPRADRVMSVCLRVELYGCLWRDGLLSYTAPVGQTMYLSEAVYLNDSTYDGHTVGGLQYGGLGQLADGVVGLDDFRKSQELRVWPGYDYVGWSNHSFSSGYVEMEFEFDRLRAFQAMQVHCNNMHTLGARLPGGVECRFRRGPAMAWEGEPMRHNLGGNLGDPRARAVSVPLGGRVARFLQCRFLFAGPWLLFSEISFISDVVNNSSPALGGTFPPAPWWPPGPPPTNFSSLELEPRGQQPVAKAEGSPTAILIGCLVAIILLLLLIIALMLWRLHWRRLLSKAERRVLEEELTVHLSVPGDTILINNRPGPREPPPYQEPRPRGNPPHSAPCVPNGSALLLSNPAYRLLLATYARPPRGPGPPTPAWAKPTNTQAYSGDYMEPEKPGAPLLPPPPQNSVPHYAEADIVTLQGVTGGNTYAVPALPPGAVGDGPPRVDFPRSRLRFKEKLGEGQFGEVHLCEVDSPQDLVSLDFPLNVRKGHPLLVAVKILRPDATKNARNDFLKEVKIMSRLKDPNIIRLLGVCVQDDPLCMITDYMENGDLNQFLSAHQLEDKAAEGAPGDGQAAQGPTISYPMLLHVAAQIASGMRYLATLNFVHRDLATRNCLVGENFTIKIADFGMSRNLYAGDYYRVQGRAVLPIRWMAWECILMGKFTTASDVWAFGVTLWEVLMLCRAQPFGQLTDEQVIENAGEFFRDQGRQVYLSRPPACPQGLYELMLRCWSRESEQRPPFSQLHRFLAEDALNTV
Chain of Cyclin-dependent kinase 7 (P50613 whole entry): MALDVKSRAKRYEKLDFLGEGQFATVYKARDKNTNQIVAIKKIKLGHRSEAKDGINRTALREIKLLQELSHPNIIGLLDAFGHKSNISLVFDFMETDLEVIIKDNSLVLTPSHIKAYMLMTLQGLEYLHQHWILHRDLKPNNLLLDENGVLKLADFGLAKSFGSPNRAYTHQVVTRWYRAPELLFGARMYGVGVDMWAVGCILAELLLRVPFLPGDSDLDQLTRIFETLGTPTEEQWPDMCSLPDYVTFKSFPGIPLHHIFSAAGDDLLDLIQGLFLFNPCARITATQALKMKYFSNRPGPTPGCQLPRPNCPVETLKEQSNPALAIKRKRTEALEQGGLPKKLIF

In assay [1], `N#Cc1cccc(-c2c[nH]c3ncnc(N4CCOCC4)c23)c1` showed a % of control of 70%.

For the compound `CC[C@@H]1[C@H](F)C(=O)N[C@@H]1COc1nccc2cc(C(N)=O)c(OC)cc12` [ZIMLOVISERTIB], the % of inhibition in assay [2] (at 0.01 µM) was 25.4%; in [2] (at 0.04 µM), -3.4%; in [2] (at 0.2 µM) it was -1.1%; in assay [2] (at 1 µM), -16.1%; in assay [2] (at 5 µM), 15.5%; in assay [3] it was -4.5%.

As usually defined, the IC50 is the point on the concentration scale where inhibition reaches its midpoint. Take `CN(C)C(=O)Cn1cc(-c2ccc(-c3cncc4ccccc34)cc2)cn1`: the 50% inhibitory concentration (IC50) in [4] is 1360 nM.

As to `C=CC(=O)Nc1cccc(C(=O)Nc2ccc(Nc3cc(-c4[nH]c(SC)nc4C)ccn3)cc2)c1`, the % of control in assay [5] (at 1 µM) was 132%; in assay [5] (at 5 µM) it was 133%.

In assay [6], `CN(C)CCOc1ccc(-c2nc(-c3ccncc3)c(-c3ccc4c(c3)CC/C4=N\O)[nH]2)cc1` showed a % of control of 43%.

With `CCC(=O)N1CCN(c2ccc(-n3c(=O)ccc4cnc5ccc(-c6cnc7ccccc7c6)cc5c43)cc2C(F)(F)F)CC1`, the % of control was 87% in assay [7] and 100% in assay [8].

Regarding `Cc1cc(C)cc([C@H]2c3cc(C)ccc3NC(=O)CN2C(=O)c2ccc(Br)s2)c1`, the % of activity in assay [9] (at 1 µM) was 98%; in assay [9] (at 10 µM), 102%.

In turn, `COc1cc(N(C)c2ccnc3ccc(C(F)(F)F)cc23)cc(OC)c1OC` showed a % binding in assay [10] of 74%.
